A short description of data set [1]: xn = mol fraction of the nth substance listed. Particulars: 100 kPa, Liquid, x2 = 0; for speed of sound: Frequency=3 MHz, Sing-around technique in a fixed-path interferometer; for mass density: Vibrating tube method.
For data set [2] the following is noted: 100 kPa, Liquid; for speed of sound: Frequency=3 MHz, Sing-around technique in a fixed-path interferometer; for mass density: Vibrating tube method.

The record followed here is the NIST ThermoML archive (doi:10.1016/j.jct.2014.07.019).

Numbers after ± are expanded uncertainties.

With `CCCCO` [butan-1-ol] + CCCCOCC(C)O, the speed of sound was found to be 1257.5 ± 1.2 m/s in data set [1] (293.15 K); 1240.6 ± 1.2 m/s in data set [1] (298.15 K); 1223.7 ± 1.2 m/s in data set [1] (303.15 K); 1207 ± 1.2 m/s in data set [1] (308.15 K); 1190.5 ± 1.2 m/s in data set [1] (313.15 K). In addition, the mass density was determined as 809.807 ± 0.15 kg/m3 in data set [1] (293.15 K); 805.986 ± 0.15 kg/m3 in data set [1] (298.15 K); 802.139 ± 0.15 kg/m3 in data set [1] (303.15 K); 798.261 ± 0.15 kg/m3 in data set [1] (308.15 K); 794.385 ± 0.15 kg/m3 in data set [1] (313.15 K).

Turning to `CC(C)O` [propan-2-ol], the speed of sound in data set [2] (293.15 K) amounted to 1168.5 ± 1.2 m/s; in data set [2] (298.15 K), 1148 ± 1.2 m/s; in data set [2] (303.15 K), 1132.2 ± 1.2 m/s; in data set [2] (308.15 K), 1114.3 ± 1.1 m/s; in data set [2] (313.15 K) it was 1096.2 ± 1.1 m/s. Besides, the mass density amounted to 785.739 ± 0.15 kg/m3 in data set [2] (293.15 K); 781.588 ± 0.15 kg/m3 in data set [2] (298.15 K); 777.468 ± 0.15 kg/m3 in data set [2] (303.15 K); 773.151 ± 0.15 kg/m3 in data set [2] (308.15 K); 768.446 ± 0.15 kg/m3 in data set [2] (313.15 K).

Turning to `CCCO` [propan-1-ol] + CCCCOCC(C)O, the speed of sound in data set [1] (293.15 K) was 1224.2 ± 1.3 m/s; in data set [1] (298.15 K) it was 1207 ± 1.3 m/s; in data set [1] (303.15 K), 1189.8 ± 1.2 m/s; in data set [1] (308.15 K) it was 1172.8 ± 1.2 m/s; in data set [1] (313.15 K) it was 1156.2 ± 1.2 m/s. In addition, the mass density in data set [1] (293.15 K) worked out at 804.144 ± 0.16 kg/m3; in data set [1] (298.15 K), 800.13 ± 0.16 kg/m3; in data set [1] (303.15 K), 796.08 ± 0.16 kg/m3; in data set [1] (308.15 K) it was 792.001 ± 0.17 kg/m3; in data set [1] (313.15 K), 787.884 ± 0.17 kg/m3.

For the compound `CCCCO` [butan-1-ol], the speed of sound in data set [2] (293.15 K) is given as 1257.5 ± 1.2 m/s; in data set [2] (298.15 K), 1240.6 ± 1.2 m/s; in data set [2] (303.15 K), 1223.7 ± 1.2 m/s; in data set [2] (308.15 K) it was 1207 ± 1.2 m/s; in data set [2] (313.15 K), 1190.5 ± 1.2 m/s. In addition, the mass density in data set [2] (293.15 K) came out at 809.807 ± 0.15 kg/m3; in data set [2] (298.15 K), 805.986 ± 0.15 kg/m3; in data set [2] (303.15 K), 802.139 ± 0.15 kg/m3; in data set [2] (308.15 K) it was 798.261 ± 0.15 kg/m3; in data set [2] (313.15 K) it was 794.385 ± 0.15 kg/m3.

As for `CCCO` [propan-1-ol], the speed of sound in data set [2] (293.15 K) is 1224.2 ± 1.3 m/s; in data set [2] (298.15 K), 1207 ± 1.3 m/s; in data set [2] (303.15 K) it was 1189.8 ± 1.2 m/s; in data set [2] (308.15 K) it was 1172.8 ± 1.2 m/s; in data set [2] (313.15 K), 1156.2 ± 1.2 m/s. In addition, the mass density in data set [2] (293.15 K) is on record as 804.144 ± 0.16 kg/m3; in data set [2] (298.15 K), 800.13 ± 0.16 kg/m3; in data set [2] (303.15 K), 796.08 ± 0.16 kg/m3; in data set [2] (308.15 K), 792.001 ± 0.17 kg/m3; in data set [2] (313.15 K) it was 787.884 ± 0.17 kg/m3.

As for `CCC(C)O` (stereo not given) [butan-2-ol] + CCCCOCC(C)O, the speed of sound in data set [1] (293.15 K) was 1230.2 ± 1.3 m/s; in data set [1] (298.15 K), 1213.3 ± 1.3 m/s; in data set [1] (303.15 K), 1197.2 ± 1.2 m/s; in data set [1] (308.15 K) it was 1177 ± 1.2 m/s; in data set [1] (313.15 K), 1158.9 ± 1.2 m/s. Also, the mass density in data set [1] (293.15 K) amounted to 806.679 ± 0.16 kg/m3; in data set [1] (298.15 K), 802.563 ± 0.16 kg/m3; in data set [1] (303.15 K), 798.352 ± 0.16 kg/m3; in data set [1] (308.15 K), 794.058 ± 0.17 kg/m3; in data set [1] (313.15 K) it was 789.668 ± 0.17 kg/m3.

With `CC(C)O` [propan-2-ol] + CCCCOCC(C)O, the speed of sound in data set [1] (293.15 K) was found to be 1168.5 ± 1.2 m/s; in data set [1] (298.15 K) it was 1148 ± 1.2 m/s; in data set [1] (303.15 K), 1132.2 ± 1.2 m/s; in data set [1] (308.15 K), 1114.3 ± 1.1 m/s; in data set [1] (313.15 K), 1096.2 ± 1.1 m/s. In addition, the mass density in data set [1] (293.15 K) stood at 785.739 ± 0.15 kg/m3; in data set [1] (298.15 K) it was 781.588 ± 0.15 kg/m3; in data set [1] (303.15 K), 777.468 ± 0.15 kg/m3; in data set [1] (308.15 K) it was 773.151 ± 0.15 kg/m3; in data set [1] (313.15 K), 768.446 ± 0.15 kg/m3.

For `CCC(C)O` (stereo not given) [butan-2-ol], the speed of sound is 1230.2 ± 1.3 m/s in data set [2] (293.15 K); 1213.3 ± 1.3 m/s in data set [2] (298.15 K); 1197.2 ± 1.2 m/s in data set [2] (303.15 K); 1177 ± 1.2 m/s in data set [2] (308.15 K); 1158.9 ± 1.2 m/s in data set [2] (313.15 K). Further, the mass density in data set [2] (293.15 K) was found to be 806.679 ± 0.16 kg/m3; in data set [2] (298.15 K), 802.563 ± 0.16 kg/m3; in data set [2] (303.15 K), 798.352 ± 0.16 kg/m3; in data set [2] (308.15 K), 794.058 ± 0.17 kg/m3; in data set [2] (313.15 K) it was 789.668 ± 0.17 kg/m3.

In the case of `CCCCOCC(C)O` (stereo not given) [1-butoxy-2-propanol], the speed of sound in data set [2] (293.15 K) was 1279 ± 1.3 m/s; in data set [2] (298.15 K), 1260.9 ± 1.3 m/s; in data set [2] (303.15 K) it was 1242.9 ± 1.3 m/s; in data set [2] (308.15 K), 1224.9 ± 1.3 m/s; in data set [2] (313.15 K) it was 1207 ± 1.3 m/s. Moreover, the mass density in data set [2] (293.15 K) came out at 879.031 ± 0.15 kg/m3; in data set [2] (298.15 K), 874.632 ± 0.15 kg/m3; in data set [2] (303.15 K), 870.204 ± 0.15 kg/m3; in data set [2] (308.15 K), 865.737 ± 0.15 kg/m3; in data set [2] (313.15 K), 861.241 ± 0.15 kg/m3.
